Measurements: the NIST ThermoML archive (doi:10.1016/j.jct.2016.08.001)

What was measured:
[1] = refractive index (Na D-line) (dimensionless); xn = mol fraction of the nth substance listed; details: 100 kPa, Liquid, Standard Abbe refractometry
[2] = xn = mol fraction of the nth substance listed; details: 100 kPa, Liquid; for speed of sound: Frequency=3 MHz, Sing-around technique in a fixed-path interferometer; for mass density: Vibrating tube method

O=Cc1ccccc1 [benzaldehyde] + CCOC(=O)OCC
Details	mass density, [2] [kg/m3]	refractive index, [1]	speed of sound, [2] [m/s]
298.15 K, x2 = 0	1041	1.541	1457.3
298.15 K, x2 = 0.0933	1035	1.5244	1430.7
298.15 K, x2 = 0.1658	1030.2	1.5118	1409
298.15 K, x2 = 0.267	1023.4	1.4947	1379.1
298.15 K, x2 = 0.36	1016.9	1.4794	1352.5
298.15 K, x2 = 0.4554	1010.4	1.4638	1325.4
298.15 K, x2 = 0.5605	1003	1.4472	1296.3
298.15 K, x2 = 0.6547	996.2	1.4325	1269.8
298.15 K, x2 = 0.7716	987.4	1.415	1238.2
298.15 K, x2 = 0.8473	981.4	1.4039	1217
303.15 K, x2 = 0	1036.5	1.5383	1438.9
303.15 K, x2 = 0.0933	1030.6	1.522	1412.1
303.15 K, x2 = 0.1658	1025.7	1.5094	1389.9
303.15 K, x2 = 0.267	1018.7	1.4924	1359.9
303.15 K, x2 = 0.36	1012.2	1.4771	1333.1
303.15 K, x2 = 0.4554	1005.4	1.4616	1305.8
303.15 K, x2 = 0.5605	997.9	1.445	1276.5
303.15 K, x2 = 0.6547	991	1.4304	1249.9
303.15 K, x2 = 0.7716	982.1	1.4129	1218.1
303.15 K, x2 = 0.8473	976	1.4017	1196.8
308.15 K, x2 = 0	1032	1.5357	1420.6
308.15 K, x2 = 0.0933	1026.2	1.5195	1393.5
308.15 K, x2 = 0.1658	1021.2	1.5071	1371.1
308.15 K, x2 = 0.267	1014.1	1.4902	1340.8
308.15 K, x2 = 0.36	1007.4	1.475	1313.8
308.15 K, x2 = 0.4554	1000.6	1.4596	1286.3
308.15 K, x2 = 0.5605	992.9	1.443	1256.9
308.15 K, x2 = 0.6547	985.8	1.4283	1230.1
308.15 K, x2 = 0.7716	976.8	1.4108	1198.1
308.15 K, x2 = 0.8473	970.7	1.3995	1176.7
313.15 K, x2 = 0	1027.5	1.5332	1402.4
313.15 K, x2 = 0.0933	1021.8	1.5171	1375
313.15 K, x2 = 0.1658	1016.7	1.5048	1352.4
313.15 K, x2 = 0.267	1009.5	1.488	1321.8
313.15 K, x2 = 0.36	1002.7	1.4728	1294.6
313.15 K, x2 = 0.4554	995.6	1.4574	1267
313.15 K, x2 = 0.5605	987.9	1.4409	1237.4
313.15 K, x2 = 0.6547	980.7	1.4262	1210.4
313.15 K, x2 = 0.7716	971.6	1.4087	1178.3
313.15 K, x2 = 0.8473	965.4	1.3973	1156.8
318.15 K, x2 = 0	1023	1.5307	1384.4
318.15 K, x2 = 0.0933	1017.3	1.515	1356.6
318.15 K, x2 = 0.1658	1012.2	1.5028	1333.8
318.15 K, x2 = 0.267	1004.9	1.486	1303.3
318.15 K, x2 = 0.36	997.9	1.4708	1275.8
318.15 K, x2 = 0.4554	990.7	1.4555	1248
318.15 K, x2 = 0.5605	982.8	1.439	1218.3
318.15 K, x2 = 0.6547	975.6	1.4242	1191.5
318.15 K, x2 = 0.7716	966.4	1.4067	1159
318.15 K, x2 = 0.8473	960.1	1.3952	1137.3
323.15 K, x2 = 0	1018.4	1.5282	1366.4
323.15 K, x2 = 0.0933	1012.8	1.5124	1339.3
323.15 K, x2 = 0.1658	1007.7	1.5003	1316.3
323.15 K, x2 = 0.267	1000.2	1.4836	1285.3
323.15 K, x2 = 0.36	993.1	1.4685	1257.7
323.15 K, x2 = 0.4554	985.8	1.4532	1229.8
323.15 K, x2 = 0.5605	977.7	1.4368	1199.9
323.15 K, x2 = 0.6547	970.4	1.4221	1173.1
323.15 K, x2 = 0.7716	961.1	1.4046	1140.6
323.15 K, x2 = 0.8473	954.8	1.3931	1118.8
